A word on the IC50: it is the concentration at which inhibition is half-maximal. As a reminder, the bioavailability is dose-corrected exposure relative to a reference, in per cent.

The text below walks through data of ChEMBL document CHEMBL5518247 (J Med Chem, 2024).

Molecules are shown by their SMILES.

Series [1] can be described thus: Inhibition of recombinant PKCgamma (unknown origin) expressed in baculovirus infected in Sf9 cells using biotin-Ahx-peptide as substrate. More on the design: species or system Homo sapiens.
A short description of series [2]: Oral absorption in C57BL/6J mouse at 20 mg/kg measured up to 48 hrs by LC-MS/MS analysis. The class given is ADME, organism-based. The following applies: in vivo.
Series [3] in a line: Oral bioavailability in ICR mouse at 20 mg/kg measured up to 48 hrs by LC-MS/MS analysis. The following applies: in vivo. The class given is ADME, organism-based.

`Cc1n[nH]c2ccc(-c3cncc(OC[C@H](N)Cc4c[nH]c5ccccc45)c3)cc12`: the IC50 in series [1] amounted to 1400 nM.

Take `C=CC(=O)Nc1ccc2[nH]c(=O)n(C3CCN(Cc4ccc(-c5nc6cc[nH]c(=O)c6cc5-c5ccccc5)cc4)CC3)c2c1` [Borussertib]: the Fa at 48 h in series [2] stood at 39.6%. The molecule further returned a bioavailability in series [3] of less than 5%.
